From patent US9517265B2, “Methods for the prevention and/or treatment of memory impairment” (The Governing Council of the University of Toronto, priority 2010, dated 2016)

Legend:
[1] = Core (rectal) temperature during anesthesia; format: in vivo, mice
Description: Mice were placed in the air-tight acrylic glass chamber for administration of the anesthetic; a rectal probe was inserted after the mice lost their righting reflex and rectal temperature was […] to measure temperature between 5 min and 1 h. The rectal probe was not inserted prior to the 5 min mark to ensure the mice were adequately anesthetized and not discomforted.

[2] = Balance beam and tail flick 1 h after isoflurane; format: in vivo, mice; settings: 1 h after isoflurane or vehicle
Description: Mice were gently held by the scruff and allowed free movement of the tail. The tip of the tail was inserted to about 1 cm depth into a beaker of water (49° C.). The latency for the mouse to remove its tail from the water was recorded and used as an indication of nociception. […] Indicators of motor coordination and mobility include the time for the mice to spontaneously cross the beam, and the number of times the hindfoot slipped off the beam. Average values of three repetitions for each mouse were reported.

## FC(F)OC(Cl)C(F)(F)F (stereo not shown) [isoflurane]
[1]; 5 min after introduction into the anesthetic chamber
  rectal temperature: 37.8±0.4 °C
[1]; 1 h after induction
  rectal temperature: 37.8±0.4 °C
[2]
  balance beam crossing times and foot slips (in words): No differences were observed between treatment groups
  latency to tail flick (in words): No differences were detected in the latency to tail flick
